This is an account of results in patent US20250333432A1, “NOVEL COMPOUND AND USE OF SAME” (NAGASE & CO., LTD., priority 2020, published 2025).

Data set [1] in a line: Solubility in solvent (methanol). Format: physicochemical.
For data set [2], the system named is antioxidant responsive element transcription activity (pGL3-GSTYaARE-Luciferase) in ARPE-19 cells. In words: Antioxidant responsive element luciferase reporter assay in ARPE-19 cells. Format: cell-based. Conditions: for antioxidant effect in comparison with trehangelin A: ARE luciferase reporter, comparison with known substance trehangelin A; for antioxidant effect: conclusion from luciferase activity vs control, FIG. 1. As for the experimental part:
The physiological functions of the compounds obtained above were evaluated. The evaluation of the physiological functions was carried out by using the tool described in Carnosic acid, a catechol-type electrophilic compound, protects neurons both in vitro and in vivo through activation of the Keap1/Nrf2 pathway via S-alkylation of targeted cysteines on Keap1. Takumi Satoh et al., Journal of Neurochemistry. Vol. 104, pp. 1116-1131, (2008).
Briefly, ARPE-19 cells were seeded in 24-well plates using a 10% FBS-DMEM/F12 medium (manufactured by GIBCO) so as to be 50% confluent. After 24 hours, (1) a mixed solution (vector solution) of 0.5 μg of pGL3-GSTYaARE-Luciferase vector, 0.5 μg of pSV-betaGAL vector, and 50 μL of Opti-MEM I (manufactured by GIBCO) per well and (2) a mixed solution (lipofectamine 2000) of 2 μL of lipofectamine 2000 (manufactured by Thermo Fisher) and 50 μL of Opti-MEM I (manufactured by GIBCO) per well were prepared and left at room temperature for 5 minutes. The vector solution and the lipofectamine 2000 solution were mixed and left at room temperature for 20 minutes. The resulting mixed solution was added to cultured cells (ARPE-19 cells) (100 μL per well) and cultured in a CO2 incubator for 6 hours. Subsequently, the culture medium was replaced with a new 10% FBS-DMEM/F12 medium (0.5 mL/well), followed by culturing for 18 hours. The culture medium was then replaced with a new 10% FBS-DMEM/F12 medium (0.3 mL/well) or a 10% FBS-DMEM/F12 medium (0.3 mL/well) containing […] of various trehangelin derivatives, followed by culturing for 24 hours. After the medium was removed, 150 μL of PassiveLysisBuffer (manufactured by Promega) was added to prepare a cell lysis solution.
100 μL of each cell lysis solution was placed on a 96-well plate, and 100 μL of β-GAL assay kit solution (manufactured by Promega) was added, followed by incubation at 37° C. for 3 hours. Then, β-GAL activity was confirmed by measuring the absorbance at 405 nm.
20 μL of each cell lysis solution was placed in a 96-well plate which differs from the above 96-well plate, and 100 μL of each luciferase assay kit solution (manufactured by Promega) was added. Then, luciferase activity was measured by measuring the luminescence. The obtained result on the luciferase activity was corrected by dividing them by the result on the β-GAL activity, and the antioxidant responsive element transcription activity was calculated.
A general note: Reporter assays use an easily measured gene product as a stand-in for the process of interest.

On to `C/C=C(/C)C(=O)OC1C(O)C(CO)OC(OC2OC(CO)C(O)C(O)C2O)C1O` (centres unmarked) [3-O-angeloyltrehalose], for which the Solubility in solvent entry in data set [1] is “Poorly soluble in methanol”. In data set [2], the “antioxidant effect in comparison with trehangelin A” value (“antioxidant effect in comparison” for short) is listed as “almost the same level of antioxidant effect as that of trehangelin A” and the antioxidant effect entry was “have an antioxidant effect”.
Regarding `C/C=C\C(=O)OC1C(O)C(CO)OC(OC2OC(CO)C(O)C(OC(=O)/C(C)=C\C)C2O)C1O` (centres unmarked) [3-O-angeloyl-3′-O-isocrotonyltrehalose], the Solubility in solvent result in data set [1] is “Poorly soluble in methanol”. For the same compound, in data set [2], the “antioxidant effect in comparison” value was “higher antioxidant effect than trehangelin A” and the antioxidant effect entry is reported as “have an antioxidant effect”.
Consider `C/C=C(/C)C(=O)OC1C(O)C(CO)OC(OC2OC(CO)C(O)C(OC(C)=O)C2O)C1O` (centres unmarked) [3-O-acetyl-3′-O-angeloyltrehalose], for which, in data set [1], the Solubility in solvent result is given as “Poorly soluble in methanol”. For the same compound, the antioxidant effect entry in data set [2] is reported as “have an antioxidant effect”.
With `C/C=C(/C)C(=O)OC1C(O)C(CO)OC(OC2OC(CO)C(O)C(OC(=O)/C(C)=C\CC)C2O)C1O` (centres unmarked) [3-O-(2-methyl-2-butenoyl)-3′-O-(2-methyl-2-pentenoyl)trehalose], the Solubility in solvent result in data set [1] is listed as “Poorly soluble in methanol”. Besides, in data set [2], the “antioxidant effect in comparison” value is listed as “higher antioxidant effect than trehangelin A” and the antioxidant effect entry is “have an antioxidant effect”.
